# Legend:
# [1] = target: PI3Kδ (p110δ/p85α) Recombinant Human Protein (Homo sapiens (Human), UniProt O00329); experiment: PI3Kδ Scintillation Proximity Assay; type: biochemical; conditions: 20 μM PIP2, 2 μM ATP, 3.4 nM PI3Kδ, 120 min; read-out: PI3K-delta SPA IC50
# [2] = test system: Phosphorylated Ribosomal Protein S6 (RPS6); experiment: THP-1 RPS6 ELISA Assay; type: cell-based, Human; conditions: THP-1 cells, serum starved, 2 hours with compound, 10 nM MCP-1 for 15 minutes; read-out: THP p-RPS6 ELISA IC50
# Method: To measure the Phosphorylated Ribosomal Protein S6 (RPS6) in cell lysates, THP-1 cells (Human Acute Monocytic Leukemia) are purchased from ATCC (Manassas, Va.) and maintained in RPMI with 10% FBS (Gibco/Life Technologies, Carlsbad, Calif.). For the assay, THP-1 cells are serum starved overnight in RPMI, then plated in RPMI (2×10^5 cells/well in 90 μL) into 96-well flat-bottom tissue culture treated plates (Corning, Corning, N.Y.), in the presence or absence of a concentration range of test compounds. Covered plates are incubated for 2 hours at 37° C., 5% CO2 then treated with or without 10 nM MCP-1 (MYBioSource, San Diego, Calif.) for 15 minutes at 37° C., 5% CO2. Plates are centrifuged at 1600 RPM and supernatants are removed. Cells are lysed in Lysis Buffer (Cell Signaling, Danvers, Mass.) with Protease Inhibitor (Calbiochem/EMD, Germany), PMSF (Sigma, St Louis Mo.), HALTS (Thermo Fisher, Rockford, Ill.) for 30 min on wet ice. Cell lysates are frozen at −80° C. before testing. The lysates are tested in the Human/Mouse/Rat Phospho-RPS6 ELISA (R&D Systems, Inc. Minn, Minn.). The plate is measured using a microplate reader (SpectraMax M5-Molecular Devices, LLC Sunnyvale, Calif.) set to 450 nm with a wavelength correction of 540. […]
# PI3Kδ (p110δ/p85α) Recombinant Human Protein, sequence (O00329 whole entry): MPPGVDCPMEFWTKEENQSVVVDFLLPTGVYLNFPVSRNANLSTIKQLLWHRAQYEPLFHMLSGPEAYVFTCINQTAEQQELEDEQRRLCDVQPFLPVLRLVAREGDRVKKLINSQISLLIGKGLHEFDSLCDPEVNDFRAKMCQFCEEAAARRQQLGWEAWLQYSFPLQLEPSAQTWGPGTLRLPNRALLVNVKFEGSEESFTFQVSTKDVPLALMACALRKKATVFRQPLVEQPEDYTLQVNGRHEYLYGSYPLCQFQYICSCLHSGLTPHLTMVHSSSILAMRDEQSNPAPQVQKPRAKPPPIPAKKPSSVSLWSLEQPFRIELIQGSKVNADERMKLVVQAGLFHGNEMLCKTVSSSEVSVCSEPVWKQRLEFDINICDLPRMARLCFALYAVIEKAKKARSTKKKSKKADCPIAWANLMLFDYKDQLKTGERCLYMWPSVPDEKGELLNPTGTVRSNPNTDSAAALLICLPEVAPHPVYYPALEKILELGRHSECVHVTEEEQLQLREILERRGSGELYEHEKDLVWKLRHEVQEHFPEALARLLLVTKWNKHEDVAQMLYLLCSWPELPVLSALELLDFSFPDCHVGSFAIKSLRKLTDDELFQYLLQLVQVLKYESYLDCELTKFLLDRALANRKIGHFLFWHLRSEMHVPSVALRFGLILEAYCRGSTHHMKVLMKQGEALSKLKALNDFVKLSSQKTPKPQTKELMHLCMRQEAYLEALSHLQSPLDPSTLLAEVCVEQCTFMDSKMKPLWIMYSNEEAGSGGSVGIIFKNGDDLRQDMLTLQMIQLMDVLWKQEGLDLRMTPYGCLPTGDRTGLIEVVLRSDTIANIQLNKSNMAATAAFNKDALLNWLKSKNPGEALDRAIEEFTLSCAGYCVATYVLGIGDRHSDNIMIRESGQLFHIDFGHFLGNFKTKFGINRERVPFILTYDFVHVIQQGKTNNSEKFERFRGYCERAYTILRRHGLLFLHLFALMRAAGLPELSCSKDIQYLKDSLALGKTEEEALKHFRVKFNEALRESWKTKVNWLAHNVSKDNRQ
# PI3Kδ (p110δ/p85α) Recombinant Human Protein, sequence (P27986 whole entry partner): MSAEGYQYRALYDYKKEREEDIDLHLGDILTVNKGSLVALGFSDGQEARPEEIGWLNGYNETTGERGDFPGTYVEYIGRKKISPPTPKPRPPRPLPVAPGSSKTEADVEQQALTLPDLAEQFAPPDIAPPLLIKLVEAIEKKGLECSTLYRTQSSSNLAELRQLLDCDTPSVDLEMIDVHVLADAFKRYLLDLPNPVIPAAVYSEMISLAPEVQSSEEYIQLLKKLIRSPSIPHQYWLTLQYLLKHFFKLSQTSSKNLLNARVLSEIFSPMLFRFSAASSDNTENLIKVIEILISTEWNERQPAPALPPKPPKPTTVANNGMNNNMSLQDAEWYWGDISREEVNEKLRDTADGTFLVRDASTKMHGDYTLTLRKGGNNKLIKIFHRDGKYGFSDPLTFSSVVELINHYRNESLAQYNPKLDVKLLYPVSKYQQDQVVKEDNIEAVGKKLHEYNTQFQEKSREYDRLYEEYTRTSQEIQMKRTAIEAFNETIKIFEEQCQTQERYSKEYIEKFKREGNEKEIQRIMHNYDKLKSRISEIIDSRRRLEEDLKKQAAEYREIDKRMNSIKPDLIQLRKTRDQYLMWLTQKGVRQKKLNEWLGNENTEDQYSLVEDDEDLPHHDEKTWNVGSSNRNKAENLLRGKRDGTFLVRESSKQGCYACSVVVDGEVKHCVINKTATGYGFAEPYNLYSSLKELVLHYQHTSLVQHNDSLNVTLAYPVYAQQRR
substance,measurement,setting,value
N-(5-(2-(1H- Benzo[d]imidazol-2- yl)benzo[d]oxazol- 6-yl)pyridin-3- yl)ethanesulfonamide [Example 18],IC50,[1],< 1000 nM
same,IC50,[2],≥ 5 µM

# Reference: patent US9586949B2, “Aza-heteroaryl compounds as PI3K-gamma inhibitors” (Incyte Corporation, priority 2015, dated 2017)
